# Measurements taken from US20150175877A1, “ENVIRONMENTALLY ACCEPTABLE MULTIFUNCTIONAL ADDITIVE” (SCHLUMBERGER TECHNOLOGY CORPORATION, priority 2013, published 2015).
# Test system: bacteria in North Sea location water
# Experiment: Bacteria growth study in water using dipslides
# Type: cell-based
# Details: 35° C., dipslide; for Bacteria count: two replicated tests
# Protocol: Bacteria Growth Study at 35° C. [95° F.]
# Following is the qualitative study of bacteria growth in water using dipslides. A dipslide is used to test the presence of microorganisms in liquids. Dipslides are the fastest and easiest way to measure the microbial activity in liquid-based systems and in this testing it is used to evaluate the performance of Bodoxin AE.
smiles,measurement,setting,value
"OCOCCOCO [Bodoxin AE, (ethylenedioxy)dimethanol]",Bacteria count in location water when biocide is used (in words),compared with tap or distilled water,reduced significantly reaching the same level as tap or distilled water
same,Bacteria count,biocide conc. 0.50 gpt,<10^3 (CFU/ml)
same,Bacteria count,biocide conc. 1.00 gpt,<10^3 (CFU/ml)
same,Bacteria count,biocide conc. 1.50 gpt,<10^3 (CFU/ml)
